Test: xn = mol fraction of the nth substance listed
Conditions: 100 kPa, Liquid; for electrical conductivity: Alternating current cell with electrodes; for mass density: Vibrating tube method; for viscosity: Capillary tube (Ostwald / Ubbelohde) method

CCCC[N+]1(C)CCCC1.N#CN=C=[N-] [1-butyl-1-methylpyrrolidinium dicyanamide] + O=C1CCCO1
electrical conductivity [S/m], 293.15 K
Conditions	Frequency=0.00652174 MHz	Frequency=0.00694444 MHz	Frequency=0.0075 MHz	Frequency=0.008 MHz	Frequency=0.00857143 MHz	Frequency=0.00892857 MHz	Frequency=0.00961538 MHz	Frequency=0.01 MHz
x1 = 0.0463	–	1.37	1.37	1.37	1.37	1.37	1.37	1.37
x1 = 0.0987	–	2.05	2.05	2.05	2.05	2.05	2.05	2.05
x1 = 0.1449	2.31	2.31	2.31	2.31	2.31	2.31	2.31	2.31
x1 = 0.1859	2.45	2.45	2.45	2.45	2.45	2.45	2.45	2.45
x1 = 0.2493	2.37	2.37	2.37	2.37	2.38	2.38	2.38	2.38
x1 = 0.3029	2.29	2.29	2.29	2.29	2.3	2.3	2.3	2.3
x1 = 0.3845	2.116	2.116	2.116	2.116	2.12	2.12	2.12	2.12
x1 = 0.4985	1.84	1.84	1.84	1.84	1.84	1.84	1.84	1.84
x1 = 0.6954	1.46	1.46	1.46	1.46	1.46	1.46	1.46	1.46
x1 = 0.9013	1.19	1.19	1.19	1.19	1.19	1.19	1.19	1.19
x1 = 1	1.123	1.123	1.123	1.123	1.123	1.124	1.124	1.124

Conditions	electrical conductivity, 298.15 K [S/m]	mass density, 293.15 K [kg/m3]	viscosity, 298.15 K [mPa·s]
x1 = 0.0463	1.47	–	–
x1 = 0.0987	2.21	1107.56	2.8
x1 = 0.1449	2.51	–	–
x1 = 0.1859	2.67	1091.31	4.02
x1 = 0.2493	2.613	–	–
x1 = 0.3029	2.54	1073.37	6.19
x1 = 0.3845	2.36	–	–
x1 = 0.4985	2.08	1050.78	–
x1 = 0.6954	1.68	1034.23	–
x1 = 0.9013	1.39	1021.32	–
x1 = 1	1.317	1016.28	–

From the NIST ThermoML archive (doi:10.1016/j.jct.2015.08.014)
